In ChEMBL document CHEMBL4020706, “Design, synthesis and biological evaluation of novel hydroxamates and 2-aminobenzamides as potent histone deacetylase inhibitors and antitumor agents” (Eur J Med Chem, 2017):

What was measured:
A549 [1] = assay: Antiproliferative activity against human A549 cells after 72 hrs by CCK-8 reagent based assay; type: functional, cell-based; conditions: A549, 72 h
HepG2 = assay: Antiproliferative activity against human HepG2 cells after 72 hrs by CCK-8 reagent based assay; type: functional, cell-based; conditions: HepG2, 72 h
MGC-803 = assay: Antiproliferative activity against human MGC803 cells after 72 hrs by CCK-8 reagent based assay; type: functional, cell-based; conditions: MGC-803, 72 h
HCT-116 = assay: Antiproliferative activity against human HCT116 cells after 72 hrs by CCK-8 reagent based assay; type: functional, cell-based; conditions: HCT-116, 72 h
A549 [2] = assay: Induction of apoptosis in human A549 cells assessed as early apoptotic cells at 4 umol/L after 48 hrs by Alexa Fluor 488 Annexin/propidium iodide staining-based flow cytometry (reference value: 3.41%); type: functional
A549 [3] = assay: Induction of apoptosis in human A549 cells assessed as necrotic cells at 8 umol/L after 48 hrs by Alexa Fluor 488 Annexin/propidium iodide staining-based flow cytometry (reference value: 0.87%); type: functional
A549 [4] = assay: Induction of apoptosis in human A549 cells assessed as late apoptotic cells at 8 umol/L after 48 hrs by Alexa Fluor 488 Annexin/propidium iodide staining-based flow cytometry (reference value: 2.93%); type: functional
A549 [5] = assay: Induction of apoptosis in human A549 cells assessed as viable cells at 8 umol/L after 48 hrs by Alexa Fluor 488 Annexin/propidium iodide staining-based flow cytometry (reference value: 92.79%); type: functional; conditions: A549, 48 h, read-out: Activity
A549 [6] = assay: Induction of apoptosis in human A549 cells assessed as late apoptotic cells at 4 umol/L after 48 hrs by Alexa Fluor 488 Annexin/propidium iodide staining-based flow cytometry (reference value: 2.93%); type: functional
A549 [7] = assay: Cell cycle arrest in human A549 cells assessed as accumulation at G0/G1 phase at 2 umol/L after 48 hrs by propidium iodide staining-based flow cytometry (reference value: 75.77%); type: functional
A549 [8] = assay: Cell cycle arrest in human A549 cells assessed as accumulation at G0/G1 phase at 16 umol/L after 48 hrs by propidium iodide staining-based flow cytometry (reference value: 75.77%); type: functional
A549 [9] = assay: Induction of apoptosis in human A549 cells assessed as early apoptotic cells at 8 umol/L after 48 hrs by Alexa Fluor 488 Annexin/propidium iodide staining-based flow cytometry (reference value: 3.41%); type: functional
A549 [10] = assay: Cell cycle arrest in human A549 cells assessed as accumulation at S phase at 2 umol/L after 48 hrs by propidium iodide staining-based flow cytometry (reference value: 15.13%); type: functional
A549 [11] = assay: Cell cycle arrest in human A549 cells assessed as accumulation at S phase at 16 umol/L after 48 hrs by propidium iodide staining-based flow cytometry (reference value: 15.13%); type: functional
A549 [12] = assay: Induction of apoptosis in human A549 cells assessed as necrotic cells at 4 umol/L after 48 hrs by Alexa Fluor 488 Annexin/propidium iodide staining-based flow cytometry (reference value: 0.87%); type: functional
A549 [13] = assay: Cell cycle arrest in human A549 cells assessed as accumulation at G2/M phase at 16 umol/L after 48 hrs by propidium iodide staining-based flow cytometry (reference value: 9.1%); type: functional; conditions: at 16 µM
A549 [14] = assay: Induction of apoptosis in human A549 cells assessed as viable cells at 4 umol/L after 48 hrs by Alexa Fluor 488 Annexin/propidium iodide staining-based flow cytometry (reference value: 92.79%); type: functional; conditions: A549, 48 h, read-out: Activity
A549 [15] = assay: Cell cycle arrest in human A549 cells assessed as accumulation at G2/M phase at 2 umol/L after 48 hrs by propidium iodide staining-based flow cytometry (reference value: 9.1%); type: functional; conditions: at 2 µM
[16] = molecular target: T1, Protein deacetylase HDAC6 (Homo sapiens, UniProt Q9UBN7); assay: Inhibition of human recombinant HDAC6 using Fluor de Lys as substrate after 60 mins by fluorometric assay
T1 sequence (Q9UBN7 whole entry): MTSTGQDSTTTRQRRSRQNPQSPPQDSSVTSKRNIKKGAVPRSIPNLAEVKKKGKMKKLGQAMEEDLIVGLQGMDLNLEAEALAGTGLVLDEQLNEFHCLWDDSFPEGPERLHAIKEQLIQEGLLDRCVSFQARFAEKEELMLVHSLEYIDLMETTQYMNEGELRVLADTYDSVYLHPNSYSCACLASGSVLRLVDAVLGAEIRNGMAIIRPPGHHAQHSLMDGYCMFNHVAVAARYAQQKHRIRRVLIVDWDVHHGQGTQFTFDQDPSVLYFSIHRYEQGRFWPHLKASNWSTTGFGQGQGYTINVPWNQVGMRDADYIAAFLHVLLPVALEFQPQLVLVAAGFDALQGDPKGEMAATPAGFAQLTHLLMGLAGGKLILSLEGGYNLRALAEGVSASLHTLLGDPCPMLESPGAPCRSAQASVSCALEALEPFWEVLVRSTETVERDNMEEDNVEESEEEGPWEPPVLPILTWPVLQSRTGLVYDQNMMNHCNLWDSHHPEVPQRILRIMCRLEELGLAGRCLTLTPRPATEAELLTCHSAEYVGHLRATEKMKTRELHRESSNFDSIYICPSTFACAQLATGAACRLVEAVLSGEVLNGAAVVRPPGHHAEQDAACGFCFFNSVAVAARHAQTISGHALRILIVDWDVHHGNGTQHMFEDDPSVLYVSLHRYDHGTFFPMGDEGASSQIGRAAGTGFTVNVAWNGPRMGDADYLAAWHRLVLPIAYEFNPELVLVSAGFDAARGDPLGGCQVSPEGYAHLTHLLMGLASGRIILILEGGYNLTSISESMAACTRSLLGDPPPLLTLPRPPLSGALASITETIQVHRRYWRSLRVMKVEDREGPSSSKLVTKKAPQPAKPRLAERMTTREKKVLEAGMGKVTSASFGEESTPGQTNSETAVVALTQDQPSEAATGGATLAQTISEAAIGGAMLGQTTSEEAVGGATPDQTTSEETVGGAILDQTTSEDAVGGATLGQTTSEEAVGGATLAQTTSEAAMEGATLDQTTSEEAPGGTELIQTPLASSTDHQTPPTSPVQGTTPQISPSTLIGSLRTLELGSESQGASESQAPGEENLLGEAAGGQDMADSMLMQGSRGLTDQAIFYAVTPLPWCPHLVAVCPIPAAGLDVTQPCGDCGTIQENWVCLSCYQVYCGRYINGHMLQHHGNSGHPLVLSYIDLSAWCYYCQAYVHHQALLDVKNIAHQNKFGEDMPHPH

Histone deacetylase 1 = Histone deacetylase 1 (Homo sapiens, UniProt Q13547); assay: Inhibition of human recombinant HDAC1 using Fluor de Lys as substrate by fluorometric assay
A549 [17] = assay: Cell cycle arrest in human A549 cells assessed as accumulation at G2/M phase after 48 hrs by propidium iodide staining-based flow cytometry; type: functional
Histone deacetylase 2 = Histone deacetylase 2 (Homo sapiens, UniProt Q92769); assay: Inhibition of human recombinant HDAC2 using Fluor de Lys green as substrate by fluorometric assay
A549 [18] = assay: Induction of apoptosis in human A549 cells after 48 hrs by Alexa Fluor 488 Annexin/propidium iodide staining-based flow cytometry; type: functional, cell-based
A549 [19] = assay: Inhibition of colony formation in human A549 cells after 7 days by crystal violet staining based assay; type: functional, cell-based

Histone deacetylase 1, sequence (Q13547 whole entry): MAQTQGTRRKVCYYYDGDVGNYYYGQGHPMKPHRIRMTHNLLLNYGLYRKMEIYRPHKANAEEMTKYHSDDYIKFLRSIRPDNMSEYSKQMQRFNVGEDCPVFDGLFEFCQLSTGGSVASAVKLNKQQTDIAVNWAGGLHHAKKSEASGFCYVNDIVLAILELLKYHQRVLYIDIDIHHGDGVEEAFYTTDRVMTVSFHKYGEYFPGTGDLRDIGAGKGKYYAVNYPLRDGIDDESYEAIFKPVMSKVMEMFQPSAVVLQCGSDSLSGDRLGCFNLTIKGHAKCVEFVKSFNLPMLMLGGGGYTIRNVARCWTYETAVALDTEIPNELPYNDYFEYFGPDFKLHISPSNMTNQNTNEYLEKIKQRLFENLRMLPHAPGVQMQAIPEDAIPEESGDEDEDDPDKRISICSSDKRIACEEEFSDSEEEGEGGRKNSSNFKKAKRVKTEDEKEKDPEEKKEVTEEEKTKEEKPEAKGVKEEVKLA
Histone deacetylase 2, sequence (Q92769 whole entry): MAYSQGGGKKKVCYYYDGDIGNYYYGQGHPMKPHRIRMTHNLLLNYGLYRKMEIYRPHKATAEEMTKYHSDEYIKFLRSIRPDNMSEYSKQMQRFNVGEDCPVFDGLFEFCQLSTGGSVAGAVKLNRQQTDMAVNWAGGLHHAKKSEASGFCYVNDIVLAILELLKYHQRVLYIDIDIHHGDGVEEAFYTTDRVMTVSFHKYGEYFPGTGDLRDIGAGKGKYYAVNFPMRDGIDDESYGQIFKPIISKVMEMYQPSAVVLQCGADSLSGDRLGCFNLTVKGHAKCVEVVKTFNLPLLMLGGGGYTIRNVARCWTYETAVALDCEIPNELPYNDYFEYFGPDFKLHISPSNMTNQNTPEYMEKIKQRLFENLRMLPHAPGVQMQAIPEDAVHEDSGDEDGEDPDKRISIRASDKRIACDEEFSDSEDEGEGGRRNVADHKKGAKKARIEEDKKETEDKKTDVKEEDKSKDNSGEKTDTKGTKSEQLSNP

SMILES	IC50 (A549 [1]) [µM]	IC50 (HepG2) [µM]	IC50 (MGC-803) [µM]	IC50 (HCT-116) [µM]	further results
Nc1ccccc1NC(=O)c1ccc(COc2ccccc2)cc1	6.76	6.7	5.67	4.89	–
CC(C)c1ccc(OCc2ccc(C(=O)Nc3ccccc3N)cc2)cc1	7.46	> 32	> 32	4.57	–
Nc1ccccc1NC(=O)c1ccc(CN2CCc3cc(Br)ccc32)cc1	–	10.7	7.39	–	–
Nc1ccccc1NC(=O)/C=C/c1ccc(CN2CCc3ccccc3C2)cc1	–	13.5	14.2	–	–
O=C(NO)c1ccc(COc2ccccc2)cc1	28	29.6	–	–	–
CCc1ccc(OCc2ccc(C(=O)Nc3ccccc3N)cc2)cc1	6.42	6.96	5.88	4.83	–
Nc1ccccc1NC(=O)c1ccc(COc2ccc([N+](=O)[O-])cc2)cc1	> 32	> 32	> 32	> 32	–
Nc1ccc(F)cc1NC(=O)c1ccc(CNC(=O)/C=C/c2cccnc2)cc1	11	22.7	6.44	2.28	Activity (A549 [2]): 10.55%; Activity (A549 [3]): 2.1%; Activity (A549 [4]): 8.94%; viability at 8 µM (A549 [5]): 75.5%; Activity (A549 [6]): 6.27%; Activity (A549 [7]): 80.14%; Activity (A549 [8]): 85.67%; Activity (A549 [9]): 13.48%; Activity (A549 [10]): 10.02%; Activity (A549 [11]): 7.87%; Activity (A549 [12]): 1.52%; Activity (A549 [13]): 6.46%; viability at 4 µM (A549 [14]): 81.6%; Activity (A549 [15]): 9.84%
C/C(=N\O)c1ccc(OCc2ccc(C(=O)NO)cc2)cc1	8.93	7.77	–	–	–
Nc1ccccc1NC(=O)c1ccc(COc2ccc(F)cc2)cc1	5.37	3.84	4.97	3.86	Activity (A549 [2]): 14.37%; Activity (A549 [3]): 6.34%; Activity (A549 [4]): 28.88%; viability at 8 µM (A549 [5]): 29.7%; Activity (A549 [6]): 10.93%; Activity (A549 [7]): 84.93%; IC50 [16]: > 40 µM; Activity (A549 [8]): 54.03%; IC50 (Histone deacetylase 1): 1.27 µM; Activity (A549 [17]): Dose-dependent effect; Activity (A549 [9]): 35.52%; IC50 (Histone deacetylase 2): 0.57 µM; Activity (A549 [18]): Dose-dependent effect; Activity (A549 [10]): 6.1%; Activity (A549 [11]): 8.23%; Activity (A549 [12]): 3.74%; inhibition (A549 [19]): Dose-dependent effect; Activity (A549 [13]): 37.74%; viability at 4 µM (A549 [14]): 70.9%; Activity (A549 [15]): 8.97%
COc1ccc(OCc2ccc(C(=O)Nc3ccccc3N)cc2)cc1	5.53	4.2	3.48	2.02	inhibition (A549 [19]): Dose-dependent effect
Cc1ccc(OCc2ccc(C(=O)Nc3ccccc3N)cc2)cc1	5.43	6.59	6.53	4.86	–
Nc1ccccc1NC(=O)/C=C/c1ccc(CN2CCc3ccccc32)cc1	13.4	> 32	> 32	–	–
Nc1cnccc1NC(=O)/C=C/c1ccc(COc2ccccc2)cc1	> 32	> 32	> 32	–	–
CCCc1ccc(OCc2ccc(C(=O)Nc3ccccc3N)cc2)cc1	5.21	4.75	4.42	3.23	–
Nc1ccccc1NC(=O)c1ccc(COc2ccc(Br)cc2)cc1	24.4	> 32	> 32	> 32	–
Nc1ccccc1NC(=O)/C=C/c1ccc(COc2ccccc2)cc1	> 32	> 32	> 32	–	–
O=C(/C=C/c1ccc(COc2ccccc2)cc1)NO	5.77	8.4	–	–	–
Nc1cc(F)ccc1NC(=O)c1ccc(COc2ccccc2)cc1	8.34	7.02	6.02	–	–
Nc1ccccc1NC(=O)c1ccc(COc2ccc(Cl)cc2)cc1	> 32	> 32	> 32	17.3	–
O=C(/C=C/c1ccc(CN2CCc3ccccc32)cc1)NO	5.48	14.9	–	–	–
CC(=O)Nc1ccc(C(=O)Nc2ccccc2N)cc1 [TACEDINALINE]	20.1	18.5	11.6	7.71	Activity (A549 [2]): 6.96%; Activity (A549 [3]): 1.8%; Activity (A549 [4]): 4.76%; viability at 8 µM (A549 [5]): 85.6%; Activity (A549 [6]): 4.39%; Activity (A549 [7]): 81.59%; Activity (A549 [8]): 89.32%; Activity (A549 [9]): 7.82%; Activity (A549 [10]): 9.31%; Activity (A549 [11]): 4.66%; Activity (A549 [12]): 2.91%; Activity (A549 [13]): 6.02%; viability at 4 µM (A549 [14]): 85.7%; Activity (A549 [15]): 9.1%
